We go through 16 molecules from ChEMBL document CHEMBL4043200, “Synthesis and biological evaluation of 8-aryl-2-morpholino-7-O-substituted benzo[e][1,3]oxazin-4-ones against DNA-PK, PI3K, PDE3A enzymes and platelet aggregation” (Bioorg Med Chem, 2017).

Experiment [1] deals with DNA-dependent protein kinase catalytic subunit (Homo sapiens, UniProt P78527). In words: Inhibition of human DNA-PK catalytic subunit at 10 uM using DNA and [EPPLSQEAFADLWKK] peptide substrate by HTRF assay.
Experiment [2] concerns the target T1, cGMP-inhibited 3',5'-cyclic phosphodiesterase 3A (Homo sapiens, UniProt Q14432). In words: Inhibition of human PDE3A at 10 uM by HTRF assay.
Experiment [3] deals with Phosphatidylinositol 4,5-bisphosphate 3-kinase catalytic subunit alpha isoform (Homo sapiens) (UniProt P42336). As to the kind of experiment: Inhibition of wild type PI3K-alpha (unknown origin) assessed as decrease in ATP consumption at 10 uM using phosphotidylinositol bisphosphate and ATP measured after 60 mins by Kinase-Glo reagent based luminescence assay.
Sequence of Phosphatidylinositol 4,5-bisphosphate 3-kinase catalytic subunit alpha isoform (Homo sapiens) (P42336 whole entry, canonical isoform): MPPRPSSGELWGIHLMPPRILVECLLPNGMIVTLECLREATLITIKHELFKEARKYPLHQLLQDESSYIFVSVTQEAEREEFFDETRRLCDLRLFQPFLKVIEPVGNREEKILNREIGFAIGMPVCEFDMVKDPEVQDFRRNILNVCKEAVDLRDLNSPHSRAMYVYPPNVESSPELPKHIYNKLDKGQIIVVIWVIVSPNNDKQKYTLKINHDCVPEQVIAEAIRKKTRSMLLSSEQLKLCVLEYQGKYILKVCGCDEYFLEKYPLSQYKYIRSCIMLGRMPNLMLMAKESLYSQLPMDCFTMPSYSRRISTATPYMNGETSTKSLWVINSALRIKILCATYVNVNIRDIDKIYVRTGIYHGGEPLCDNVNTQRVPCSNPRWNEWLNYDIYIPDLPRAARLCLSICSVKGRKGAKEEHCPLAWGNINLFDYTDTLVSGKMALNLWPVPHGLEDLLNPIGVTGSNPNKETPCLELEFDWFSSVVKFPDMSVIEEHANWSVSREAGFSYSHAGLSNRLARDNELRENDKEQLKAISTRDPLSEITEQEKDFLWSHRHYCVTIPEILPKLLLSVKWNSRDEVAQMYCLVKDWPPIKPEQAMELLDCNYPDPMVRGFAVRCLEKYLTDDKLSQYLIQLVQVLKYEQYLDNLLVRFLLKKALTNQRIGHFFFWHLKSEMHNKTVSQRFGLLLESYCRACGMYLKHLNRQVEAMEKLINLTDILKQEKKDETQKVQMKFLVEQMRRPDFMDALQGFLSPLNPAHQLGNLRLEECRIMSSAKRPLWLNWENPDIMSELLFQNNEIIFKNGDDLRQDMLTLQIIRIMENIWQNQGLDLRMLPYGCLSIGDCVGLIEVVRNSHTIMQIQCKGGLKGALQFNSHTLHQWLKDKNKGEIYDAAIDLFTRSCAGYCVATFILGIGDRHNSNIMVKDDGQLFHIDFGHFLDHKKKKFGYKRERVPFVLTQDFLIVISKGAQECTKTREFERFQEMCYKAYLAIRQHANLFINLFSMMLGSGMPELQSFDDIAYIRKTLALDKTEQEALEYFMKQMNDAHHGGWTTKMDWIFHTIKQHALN
Experiment [4] has as its target Phosphatidylinositol 4,5-bisphosphate 3-kinase catalytic subunit beta isoform (Homo sapiens) (UniProt P42338). In words: Inhibition of wild type PI3K-beta (unknown origin) assessed as decrease in ATP consumption at 10 uM using phosphotidylinositol bisphosphate and ATP measured after 60 mins by Kinase-Glo reagent based luminescence assay.
Experiment [5] addresses Phosphatidylinositol 4,5-bisphosphate 3-kinase catalytic subunit gamma isoform (Homo sapiens) (UniProt P48736). As to the kind of experiment: Inhibition of wild type PI3K-gamma (unknown origin) assessed as decrease in ATP consumption at 10 uM using phosphotidylinositol bisphosphate and ATP measured after 60 mins by Kinase-Glo reagent based luminescence assay.
The target of experiment [6] is T2, Phosphatidylinositol 4,5-bisphosphate 3-kinase catalytic subunit delta isoform (Homo sapiens) (UniProt O00329).
T2 sequence (whole entry): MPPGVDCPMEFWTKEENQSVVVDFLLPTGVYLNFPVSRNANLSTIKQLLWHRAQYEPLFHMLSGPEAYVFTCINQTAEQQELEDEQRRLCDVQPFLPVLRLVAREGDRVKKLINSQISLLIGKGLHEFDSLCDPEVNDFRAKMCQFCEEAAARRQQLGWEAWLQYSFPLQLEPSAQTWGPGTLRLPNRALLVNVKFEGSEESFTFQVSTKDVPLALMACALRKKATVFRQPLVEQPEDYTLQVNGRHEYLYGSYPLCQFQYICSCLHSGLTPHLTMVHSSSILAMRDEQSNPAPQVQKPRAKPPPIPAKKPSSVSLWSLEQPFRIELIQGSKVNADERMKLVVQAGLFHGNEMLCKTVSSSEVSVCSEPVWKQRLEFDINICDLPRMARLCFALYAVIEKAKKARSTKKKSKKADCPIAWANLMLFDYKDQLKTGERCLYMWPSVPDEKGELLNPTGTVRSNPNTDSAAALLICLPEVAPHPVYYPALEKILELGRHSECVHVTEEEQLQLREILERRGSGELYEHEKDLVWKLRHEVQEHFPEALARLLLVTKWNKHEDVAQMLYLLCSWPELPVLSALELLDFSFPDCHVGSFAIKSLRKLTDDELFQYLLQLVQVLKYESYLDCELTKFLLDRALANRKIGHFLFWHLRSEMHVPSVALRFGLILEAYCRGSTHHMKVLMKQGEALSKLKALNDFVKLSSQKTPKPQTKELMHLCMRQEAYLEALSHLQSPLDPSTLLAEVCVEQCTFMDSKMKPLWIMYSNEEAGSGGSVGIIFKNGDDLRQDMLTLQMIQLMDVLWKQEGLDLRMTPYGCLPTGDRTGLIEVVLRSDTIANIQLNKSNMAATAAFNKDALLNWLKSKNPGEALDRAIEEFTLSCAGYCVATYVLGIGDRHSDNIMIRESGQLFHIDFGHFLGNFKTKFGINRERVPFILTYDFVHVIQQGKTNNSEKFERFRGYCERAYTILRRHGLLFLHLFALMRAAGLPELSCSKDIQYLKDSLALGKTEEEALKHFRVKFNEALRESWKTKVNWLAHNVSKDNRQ
In words: Inhibition of wild type PI3K-delta (unknown origin) assessed as decrease in ATP consumption at 10 uM using phosphotidylinositol bisphosphate and ATP measured after 60 mins by Kinase-Glo reagent based luminescence assay.

Experiment [7] has as its target T3, Phosphatidylinositol 4,5-bisphosphate 3-kinase catalytic subunit delta isoform (Homo sapiens, UniProt O00329).
T3 sequence (O00329 whole entry): T2 sequence (whole entry)
As to the kind of experiment: Inhibition of wild type PI3K-delta (unknown origin) assessed as decrease in ATP consumption using phosphotidylinositol bisphosphate and ATP measured after 60 mins by Kinase-Glo reagent based luminescence assay.

Experiment [8] has as its target T1, cGMP-inhibited 3',5'-cyclic phosphodiesterase 3A. In words: Inhibition of human PDE3A by HTRF assay.
Another experiment deals with Platelet. As to the kind of experiment: Inhibition of platelet aggregation in human platelet-rich plasma pre-incubated for 5 mins before ADP stimulation for 10 mins. Format: functional, cell-based.

T1 sequence (Q14432 whole entry, canonical isoform): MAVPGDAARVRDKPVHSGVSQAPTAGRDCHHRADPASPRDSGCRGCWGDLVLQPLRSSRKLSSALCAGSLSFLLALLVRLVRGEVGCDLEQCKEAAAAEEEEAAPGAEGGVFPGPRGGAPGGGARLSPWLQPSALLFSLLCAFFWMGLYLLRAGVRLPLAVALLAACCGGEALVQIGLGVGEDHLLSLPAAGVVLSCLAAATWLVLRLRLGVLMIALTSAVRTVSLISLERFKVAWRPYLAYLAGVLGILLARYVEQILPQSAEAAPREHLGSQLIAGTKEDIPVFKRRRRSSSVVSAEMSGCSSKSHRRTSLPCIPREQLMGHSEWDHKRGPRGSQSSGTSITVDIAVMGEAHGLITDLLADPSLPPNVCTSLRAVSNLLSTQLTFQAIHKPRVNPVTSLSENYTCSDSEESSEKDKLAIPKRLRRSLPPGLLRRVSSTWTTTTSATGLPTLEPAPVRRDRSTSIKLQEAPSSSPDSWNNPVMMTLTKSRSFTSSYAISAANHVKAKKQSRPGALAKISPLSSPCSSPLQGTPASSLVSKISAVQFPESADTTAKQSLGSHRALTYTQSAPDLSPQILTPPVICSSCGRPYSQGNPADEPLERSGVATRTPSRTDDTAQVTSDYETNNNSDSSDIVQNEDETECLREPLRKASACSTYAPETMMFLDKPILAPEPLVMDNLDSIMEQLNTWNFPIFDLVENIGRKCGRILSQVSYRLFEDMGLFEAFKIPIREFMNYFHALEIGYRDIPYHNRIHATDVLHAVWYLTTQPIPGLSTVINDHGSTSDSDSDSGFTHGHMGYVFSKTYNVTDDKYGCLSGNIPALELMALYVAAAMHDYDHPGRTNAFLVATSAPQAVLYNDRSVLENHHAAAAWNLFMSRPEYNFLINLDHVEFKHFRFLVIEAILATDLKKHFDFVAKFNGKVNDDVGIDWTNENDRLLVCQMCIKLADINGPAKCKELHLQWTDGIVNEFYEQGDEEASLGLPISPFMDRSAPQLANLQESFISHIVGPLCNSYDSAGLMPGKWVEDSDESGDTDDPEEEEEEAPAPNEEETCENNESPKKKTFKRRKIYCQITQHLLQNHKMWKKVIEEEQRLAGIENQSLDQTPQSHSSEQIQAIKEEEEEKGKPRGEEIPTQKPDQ
Sequence of Phosphatidylinositol 4,5-bisphosphate 3-kinase catalytic subunit beta isoform (Homo sapiens) (P42338 whole entry, looked up, canonical isoform): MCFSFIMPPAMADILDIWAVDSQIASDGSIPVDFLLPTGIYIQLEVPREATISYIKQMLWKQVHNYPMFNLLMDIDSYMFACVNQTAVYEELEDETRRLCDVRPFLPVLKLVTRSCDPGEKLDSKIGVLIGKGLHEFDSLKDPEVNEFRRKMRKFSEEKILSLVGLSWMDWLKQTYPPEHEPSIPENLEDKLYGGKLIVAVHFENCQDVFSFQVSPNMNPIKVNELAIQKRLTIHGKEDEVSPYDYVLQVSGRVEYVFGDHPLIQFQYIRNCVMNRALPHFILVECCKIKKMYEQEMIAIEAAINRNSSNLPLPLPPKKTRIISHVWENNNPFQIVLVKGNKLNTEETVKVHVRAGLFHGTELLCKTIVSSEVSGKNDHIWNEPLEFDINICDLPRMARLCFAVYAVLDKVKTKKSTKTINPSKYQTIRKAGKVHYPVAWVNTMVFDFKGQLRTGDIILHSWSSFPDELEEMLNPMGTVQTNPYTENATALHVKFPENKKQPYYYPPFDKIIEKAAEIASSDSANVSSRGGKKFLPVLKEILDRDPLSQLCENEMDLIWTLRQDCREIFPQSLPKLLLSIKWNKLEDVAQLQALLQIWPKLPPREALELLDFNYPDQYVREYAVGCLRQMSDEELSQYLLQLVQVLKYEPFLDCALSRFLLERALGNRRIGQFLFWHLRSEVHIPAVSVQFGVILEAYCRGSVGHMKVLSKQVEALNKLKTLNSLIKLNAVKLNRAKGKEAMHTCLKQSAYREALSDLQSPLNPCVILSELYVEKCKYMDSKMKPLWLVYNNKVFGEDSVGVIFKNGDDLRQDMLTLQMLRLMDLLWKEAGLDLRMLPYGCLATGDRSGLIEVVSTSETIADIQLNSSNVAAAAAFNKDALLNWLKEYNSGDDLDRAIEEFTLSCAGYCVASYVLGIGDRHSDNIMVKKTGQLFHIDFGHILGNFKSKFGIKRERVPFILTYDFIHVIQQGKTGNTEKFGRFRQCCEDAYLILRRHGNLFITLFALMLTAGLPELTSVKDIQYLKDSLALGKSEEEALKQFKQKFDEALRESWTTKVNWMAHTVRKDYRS
Sequence of Phosphatidylinositol 4,5-bisphosphate 3-kinase catalytic subunit gamma isoform (Homo sapiens) (P48736 whole entry, looked up, canonical isoform): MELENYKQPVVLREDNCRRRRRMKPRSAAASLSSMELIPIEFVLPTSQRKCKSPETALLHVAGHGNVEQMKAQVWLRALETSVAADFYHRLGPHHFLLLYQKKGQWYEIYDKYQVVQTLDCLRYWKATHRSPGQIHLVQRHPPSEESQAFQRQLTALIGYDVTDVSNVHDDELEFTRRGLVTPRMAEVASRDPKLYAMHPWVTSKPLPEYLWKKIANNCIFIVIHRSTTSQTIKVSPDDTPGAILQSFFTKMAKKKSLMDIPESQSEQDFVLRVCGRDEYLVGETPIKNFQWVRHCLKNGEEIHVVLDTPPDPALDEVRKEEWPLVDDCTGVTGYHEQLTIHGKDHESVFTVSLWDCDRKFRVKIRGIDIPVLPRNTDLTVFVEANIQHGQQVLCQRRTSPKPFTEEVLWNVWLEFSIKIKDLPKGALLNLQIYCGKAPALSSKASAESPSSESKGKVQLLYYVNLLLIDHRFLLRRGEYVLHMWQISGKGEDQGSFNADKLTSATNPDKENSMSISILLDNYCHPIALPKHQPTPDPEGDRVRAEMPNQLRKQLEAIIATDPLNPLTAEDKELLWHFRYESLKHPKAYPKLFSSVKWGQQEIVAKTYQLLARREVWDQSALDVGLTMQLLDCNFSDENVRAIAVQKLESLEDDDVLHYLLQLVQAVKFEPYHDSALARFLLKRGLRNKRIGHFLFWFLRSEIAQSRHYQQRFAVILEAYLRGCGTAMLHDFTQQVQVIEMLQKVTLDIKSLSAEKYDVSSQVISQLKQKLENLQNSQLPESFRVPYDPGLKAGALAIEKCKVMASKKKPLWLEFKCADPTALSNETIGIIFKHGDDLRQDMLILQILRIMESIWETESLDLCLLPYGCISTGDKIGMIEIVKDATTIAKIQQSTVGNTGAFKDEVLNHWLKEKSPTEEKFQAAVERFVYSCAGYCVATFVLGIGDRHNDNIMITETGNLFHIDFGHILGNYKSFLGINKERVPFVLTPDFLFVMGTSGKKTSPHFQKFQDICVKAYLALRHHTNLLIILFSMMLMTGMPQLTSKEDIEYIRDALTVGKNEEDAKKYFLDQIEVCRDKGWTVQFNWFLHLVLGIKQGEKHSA

Turning to `COc1ccc(-c2c(OCCN3CCN(C)CC3)ccc3c(=O)nc(N4CCOCC4)oc23)cc1`, the inhibition in experiment [1] is 18.1%; in experiment [2], 11.5%; in [3] it was 40.3%; in experiment [4], 44.8%; in experiment [5] it was 6.23%; in [6], 73.9%. Besides, the concentration for half-maximal inhibition (IC50) in experiment [7] was determined as 5.68 µM.
Turning to `O=c1nc(N2CCOCC2)oc2c(-c3ccsc3)c(OCc3ccccn3)ccc12`, the inhibition in [1] was 39.7%; in [2], 88.8%; in experiment [3] it was -8.1%; in [4], -3%; in [5], 4.4%; in experiment [6] it was 18%. Further, in experiment [8], half-maximal inhibition (IC50) required 3.05 µM.
In the case of `O=c1nc(N2CCOCC2)oc2c(-c3ccccc3)c(OCc3ccncc3)ccc12`, the inhibition in [1] worked out at 15.1%; in experiment [2], 60.1%; in experiment [3] it was 46.1%; in [4] it was 68.1%; in [5] it was 8.2%; in experiment [6], 80.8%. In addition, the IC50 in experiment [7] came out at 5.8 µM.
Turning to `O=c1nc(N2CCOCC2)oc2c(-c3cc4ccccc4s3)c(OCc3cccnc3)ccc12`, the inhibition in experiment [1] was 8.9%; in experiment [2], 56.4%; in experiment [3], 2.6%; in [4], 18.1%; in [5] it was -8.1%; in experiment [6] it was 75.6%. In addition, the IC50 in [7] was found to be 2.7 µM.
`O=c1nc(N2CCOCC2)oc2c(-c3ccc(Cl)cc3)c(OCc3ccccn3)ccc12`: the inhibition in experiment [1] worked out at 27%; in [2], 63.3%; in experiment [3], 28.6%; in experiment [4], 48.8%; in experiment [5] it was 23.5%; in experiment [6], 62.1%. The IC50 in [7] is 14.7 µM.
Take `O=c1nc(N2CCOCC2)oc2c(-c3ccccc3)c(OCc3cccnc3)ccc12`: the concentration for half-maximal inhibition (IC50) in the experiment with Platelet stood at 80 µM; in [7], 7.2 µM. Also, the inhibition was found to be 18% in experiment [1]; 50.4% in experiment [2]; 57.9% in experiment [3]; 64.4% in experiment [4]; 25.7% in experiment [5]; 85.5% in [6].
For `O=c1nc(N2CCOCC2)oc2c(-c3ccc(Cl)cc3)c(OCc3ccncc3)ccc12`, the inhibition was found to be 21.5% in experiment [1]; 56.1% in experiment [2]; 28.7% in [3]; 56.6% in experiment [4]; 26.5% in [5]; 63.3% in experiment [6]. Further, the half-maximal inhibitory concentration (IC50) in experiment [7] amounted to 9.2 µM.
`O=c1nc(N2CCOCC2)oc2c(-c3cc4ccccc4s3)c(OCc3ccccn3)ccc12`: the inhibition was 47.2% in experiment [1], 77.9% in experiment [2], -1% in experiment [5] and 24.6% in [6]. This molecule also had an IC50 in experiment [8] of 3.01 µM.
For the molecule `COc1ccc(-c2c(OCCBr)ccc3c(=O)nc(N4CCOCC4)oc23)cc1`, the inhibition in experiment [1] was 44.4%; in [2], 28%; in experiment [3], 56.3%; in experiment [4], 39.7%; in experiment [5], -8.6%; in [6] it was 88.8%. The IC50 in experiment [7] came out at 2.7 µM.
For the molecule `O=c1nc(N2CCOCC2)oc2c(-c3ccccc3)c(OCc3ccccn3)ccc12`, the inhibition in experiment [1] was found to be 25.7%; in [2], 71.3%; in experiment [3], 59.2%; in experiment [4], 66.4%; in experiment [5] it was 38.1%; in [6], 88.9%. Moreover, the IC50 in [8] is 2.75 µM; in experiment [7], 4 µM.
`COc1ccc(-c2c(OCc3cccnc3)ccc3c(=O)nc(N4CCOCC4)oc23)cc1`: the inhibition in experiment [1] is 33.5%; in experiment [2], 29.8%; in experiment [3], 30%; in experiment [4], 39.3%; in experiment [5] it was -2.2%; in [6] it was 87.8%. Also, in experiment [7], the IC50 was 2.8 µM.
Molecule `CC(C)Cn1c(=O)n(C)c(=O)c2[nH]cnc21` [ISOBUTYLMETHYLXANTHINE] registered an IC50 in experiment [8] of 7 µM.
In the experiment on Platelet, `CN1CCN(CCOc2ccc3c(=O)nc(N4CCOCC4)oc3c2-c2ccccc2)CC1` came in with a half-maximal inhibitory concentration (IC50) of 10 µM. Besides, the inhibition in experiment [1] stood at 9.8%; in experiment [2] it was 11.4%; in experiment [3], 24%; in experiment [4], 31.8%; in [5], 4.3%; in experiment [6] it was 53.4%.
As to `O=c1nc(N2CCOCC2)oc2c(-c3ccc(Cl)cc3)c(OCc3cccnc3)ccc12`, the inhibition in experiment [1] came out at 32.7%; in [2], 43.6%; in experiment [3], 34.6%; in experiment [4] it was 53.2%; in [5] it was 20%; in [6], 64.9%. For the same molecule, in [7], the IC50 worked out at 10.1 µM.
Take `O=c1nc(N2CCOCC2)oc2c(-c3cccs3)c(OCc3ccccn3)ccc12`: the inhibition is 40.1% in [1]; 74.5% in experiment [2]; -0.6% in experiment [3]; 4.1% in experiment [4]; 0.1% in [5]; 21.8% in experiment [6]. The molecule further registered an IC50 in experiment [8] of 2.95 µM.
With `COc1ccc(-c2c(OCc3ccccn3)ccc3c(=O)nc(N4CCOCC4)oc23)cc1`, the inhibition was 33.8% in experiment [1]; 50.4% in [2]; 28.9% in experiment [3]; 42.9% in experiment [4]; 12.6% in experiment [5]; 85.4% in experiment [6]. In experiment [7], the IC50 came to 2.7 µM.
